Measured values reported in patent US10011572B2, “Monocyclic isoxazolines as inhibitors of cholesterol ester transfer protein” (Merck Sharp & Dohme Corp., priority 2014, dated 2018).

molecular target: T1, endogenous CETP from serum (Homo sapiens, UniProt P11597); assay: RTA assay in 95% human serum (in vitro radioactive assay of CETP-catalyzed CE and TG transfer, endogenous CETP); format: biochemical; conditions: read-out: IC50 (nM) RTA with 95% HS
T1 construct: yielding a concentration of approximately 15 nM endogenous CETP in the assay; from tissue; host or cells: human serum
T1 sequence (P11597 18-493): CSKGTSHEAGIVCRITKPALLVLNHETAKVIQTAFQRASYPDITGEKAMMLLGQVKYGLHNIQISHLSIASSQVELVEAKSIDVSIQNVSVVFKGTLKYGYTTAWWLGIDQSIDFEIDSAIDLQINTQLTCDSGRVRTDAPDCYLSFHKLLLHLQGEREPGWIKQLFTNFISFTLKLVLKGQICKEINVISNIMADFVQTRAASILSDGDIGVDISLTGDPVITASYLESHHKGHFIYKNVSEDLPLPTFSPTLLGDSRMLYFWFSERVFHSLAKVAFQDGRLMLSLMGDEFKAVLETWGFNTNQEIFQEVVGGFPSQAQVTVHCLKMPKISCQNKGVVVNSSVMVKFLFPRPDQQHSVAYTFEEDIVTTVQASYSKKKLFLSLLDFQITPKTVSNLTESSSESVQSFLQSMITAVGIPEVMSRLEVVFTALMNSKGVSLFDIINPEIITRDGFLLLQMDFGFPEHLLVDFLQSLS
Protocol: In Vitro Radioactive Assays of CETP-Catalyzed CE and TG Transfer (RTA Assay)
Reagents and sources are: [3H] cholesteryl oleate (GE #TRK.886), [3H] Triolein (Perkin-Elmer NET-431), Butylated hydroxyl toluene (Aldrich, #D4740-4), DOPC (Sigma, # P6354), Sodium Bromide (Fisher scientific #S255-500), PEG 8000 (Fisher, #BP233-1), and human HDL (Intracel Corp #RP-036).
An in vitro assay for determining IC50's to identify compounds that inhibit CETP transfer activity is performed based on a modification of a published method (Morton and Zilversmit, (1981) A plasma inhibitor of triglyceride and cholesteryl ester transfer activities, J. Biol. Chem. 256(23), 11992-11995). The ability of inhibitors to alter CETP activity is performed using two different assays: one using recombinant CETP and one using an endogenous plasma source of CETP. Both assays measure the transfer of [3H] cholesteryl oleate or [3H] triolein from exogenous LDL to HDL.
Radiolabeled donor particles are generated by first combining 100 μl of 200 μM butylated hydroxyl toluene in CHCl3, 216 μL of 21.57 mM DOPC in EtOH, and either 500 μCi [3H]-triolein (Perkin Elmer #NET-431) or 500 μCi [3H]-cholesteryl oleate (GE #TRK886) in a glass tube. Reagents are mixed, dried under nitrogen, and then resuspended in 2 mL of 50 mM Tris, 27 μM EDTA at pH 7.4. After a brief vortex, the solution is sonicated until clear and mixed with 20 mL of fresh human serum. The mixture is incubated overnight at 37° C. The [3H] labeled LDL substrate is separated at 1.063 g/ml density by sequential ultracentrifugal flotation in NaBr according to the method of Havel, Eder, et al., 1955, and Chapman, Goldstein, et al., 1981. Once isolated the particles are dialyzed 3× in CETP buffer (50 mM Tris, pH 7.4, 100 mM NaCl, 1 mM EDTA). Human HDL is purchased from Intracel and used as the acceptor particles.
Transfer assays are performed in a 96-well v-bottom polypropylene plate. For the RTA using recombinant CETP (2% RTA), an assay cocktail is prepared with the final concentrations 128 μg/mL HDL, 20 nM rCETP, 2% human serum, and 1×CETP buffer. 1 μL of each test compound diluted in DMSO is added to 47 μL of assay cocktail per well and incubated at 37° C. for 1 hour. To initiate the transfer reaction, 2 μL radiolabeled LDL is added. After an additional 60 min of incubation at 37° C., the transfer action is terminated by precipitation of LDL with an equal volume of 20% WN PEG 8000. The plates are centrifuged at 2000 rpm for 30 minutes at 4° C. A 40 μL aliquot of the HDL-containing supernatant is transferred to a Packard Optiplate™ with 200 μL of MicroScint™ 20. After mixing, plates are counted by liquid scintillation. Counts present in the supernatant for blanks (wells containing only HDL acceptor, CETP buffer and DMSO) are subtracted from those containing test compounds and used to correct for non-specific transfer.
For the transfer assay using endogenous CETP from serum (95% RTA), the same procedure is used except that human serum is added such that a final concentration of serum of 95% of the total assay volume is achieved, yielding a concentration of approximately 15 nM endogenous CETP in the assay. This is then combined with HDL and CETP buffer and the reaction proceeds as above and is terminated as described.
Comparison of the counts of samples with inhibitors to an uninhibited (DMSO only) positive control yield a percent inhibition. A plot of percent inhibition vs. log of inhibitor concentration, fit to a Sigmoidal 4 parameter equation is used to calculate IC50.
Starting materials are commercially available or are made using known procedures or as shown below. The examples may be synthesized according to the general schemes provided below and by using the synthetic intermediates that are described. The data reported for the examples below were obtained using the RTA assay in 95% human serum.

Row | SMILES | IC50 [nM]
1 | COc1cc(F)c(C(C)C)cc1-c1ccc(C(F)(F)F)cc1CC1=NO[C@H](c2cc(C(F)(F)F)cc(C(F)(F)F)c2)C1 [Example 4, (5S)-5-[3,5-bis(trifluoromethyl)phenyl]-3-{[4′-fluoro-2′-methoxy-5′-(1-methylethyl)-4-(trifluoromethyl)biphenyl-2-yl]methyl}-4,5-dihydroisoxazole] | 1290
2 | COc1ccc(CCC(=O)O)cc1-c1ccc(C(F)(F)F)cc1CC1=NO[C@H](c2cc(C(F)(F)F)cc(C(F)(F)F)c2)C1 [Example 5, 3-[2′-({(5S)-5-[3,5-bis(trifluoromethyl)phenyl]-4,5-dihydroisoxazol-3-yl}methyl)-6-methoxy-4′-(trifluoromethyl)biphenyl-3-yl]propanoic acid] | 1500
3 | COc1ncc(-c2ccc(C(=O)O)cc2C)cc1-c1ccc(C(F)(F)F)cc1CC1=NO[C@H](c2cc(C(F)(F)F)cc(C(F)(F)F)c2)C1 [Example 6, 4-{5-[2-({(5S)-5-[3,5-bis(trifluoromethyl)phenyl]-4,5-dihydroisoxazol-3-yl}methyl)-4-(trifluoromethyl)phenyl]-6-methoxypyridin-3-yl}-3-methylbenzoic acid] | 537
4 | COc1ncc(-c2ccc(C(=O)O)cc2C)cc1-c1cnc(C(F)(F)F)cc1CC1=NO[C@H](c2cc(C(F)(F)F)cc(C(F)(F)F)c2)C1 [Example 7, (S)-4-[4′-({5-[3,5-bis(trifluoromethyl)phenyl]-4,5-dihydroisoxazol-3-yl}methyl)-2-methoxy-6′-(trifluoromethyl)-3,3′-bipyridin-5-yl]-3-methylbenzoic acid] | 4970
5 | COc1ccc(-c2ccc(C(=O)O)cc2C)cc1-c1cnc(C(F)(F)F)cc1CC1=NO[C@H](c2cc(C(F)(F)F)cc(C(F)(F)F)c2)C1 [Example 8, (S)-3′-[4-({5-[3,5-bis(trifluoromethyl)phenyl]-4,5-dihydroisoxazol-3-yl}methyl)-6-(trifluoromethyl)pyridin-3-yl]-4′-methoxy-2-methylbiphenyl-4-carboxylic acid] | 1070
6 | COc1ncc(-c2ccc(C(=O)O)cc2C)cc1-c1ccc(C(F)(F)F)cc1CC1=NO[C@H](c2ccnc(C(F)(F)F)c2)C1 [Example 9, (S)-4-{6-methoxy-5-[4-(trifluoromethyl)-2-({5-[2-(trifluoromethyl)pyridin-4-yl]-4,5-dihydroisoxazol-3-yl}methyl)phenyl]pyridin-3-yl}-3-methylbenzoic acid] | 6500
7 | COc1ncc(-c2ccc(C(=O)O)cc2C)cc1-c1ccc(C(F)(F)F)nc1CC1=NO[C@H](c2cc(C(F)(F)F)cc(C(F)(F)F)c2)C1 [Example 10, (S)-4-[2′-({5-[3,5-bis(trifluoromethyl)phenyl]-4,5-dihydroisoxazol-3-yl}methyl)-2-methoxy-6′-(trifluoromethyl)-3,3′-bipyridin-5-yl]-3-methylbenzoic acid] | 400
8 | COc1ccc(-c2cc(-c3ccc(C(=O)O)cc3C)ccc2OC)c(CC2=NO[C@H](c3cc(C(F)(F)F)cc(C(F)(F)F)c3)C2)n1 [Example 11, (S)-3′-[2-({5-[3,5-bis(trifluoromethyl)phenyl]-4,5-dihydroisoxazol-3-yl}methyl)-6-methoxypyridin-3-yl]-4′-methoxy-2-methylbiphenyl-4-carboxylic acid] | 176
9 | COc1ccc(-c2cc(-c3ccc(C(=O)O)cc3C)cnc2OC)c(CC2=NO[C@H](c3cc(C(F)(F)F)cc(C(F)(F)F)c3)C2)n1 [Example 12, (S)-4-[2′-({5-[3,5-bis(trifluoromethyl)phenyl]-4,5-dihydroisoxazol-3-yl}methyl)-2,6′-dimethoxy-3,3′-bipyridin-5-yl]-3-methylbenzoic acid] | 880
10 | COc1ncc(-c2c(C)cc(C(=O)O)cc2C)cc1-c1ccc(C(F)(F)F)cc1CC1=NO[C@H](c2cc(C(F)(F)F)cc(C(F)(F)F)c2)[C@@H]1C [Example 13, 4-(5-(2-(((4R,5S)-5-(3,5-bis(trifluoromethyl)phenyl)-4-methyl-4,5-dihydroisoxazol-3-yl)methyl)-4-(trifluoromethyl)phenyl)-6-methoxypyridin-3-yl)-3,5-dimethylbenzoic acid] | 343

same assay, conditions: read-out: IC50 RTA (95% HS)

Row | SMILES | IC50 [nM]
11 | COc1cc(F)c(-c2ccc(C(=O)O)cc2C)cc1-c1ccc(C(F)(F)F)cc1CC1=NO[C@H](c2cc(C(F)(F)F)cc(C(F)(F)F)c2)C1 [Example 1A, (S)-2″-((5-(3,5-bis(trifluoromethyl)phenyl)-4,5-dihydroisoxazol-3-yl)methyl)-6′-fluoro-4′-methoxy-2-methyl-4″-(trifluoromethyl)-[1,1′:3′,1″-terphenyl]-4-carboxylic acid] | 37
12 | COc1cc(F)c(-c2ccc(C(=O)O)cc2C)cc1-c1ccc(C(F)(F)F)cc1CC1=NO[C@@H](c2cc(C(F)(F)F)cc(C(F)(F)F)c2)C1 [Example 1B, (R)-2″-((5-(3,5-bis(trifluoromethyl)phenyl)-4,5-dihydroisoxazol-3-yl)methyl)-6′-fluoro-4′-methoxy-2-methyl-4″-(trifluoromethyl)-[1,1′:3′,1″-terphenyl]-4-carboxylic acid] | 1600
13 | COc1cc(F)c(-c2ccc(-c3n[nH]c(=O)o3)cc2C)cc1-c1ccc(C(F)(F)F)cc1CC1=NO[C@H](c2cc(C(F)(F)F)cc(C(F)(F)F)c2)C1 [Example 2, (S)-5-(2″-((5-(3,5-bis(trifluoromethyl)phenyl)-4,5-dihydroisoxazol-3-yl)methyl)-6′-fluoro-4′-methoxy-2-methyl-4″-(trifluoromethyl)-[1,1′:3′,1″-terphenyl]-4-yl)-1,3,4-oxadiazol-2(3H)-one] | 167
14 | COc1ccc(-c2ccc(C(=O)O)cc2C)cc1-c1ccc(C(F)(F)F)cc1CC1=NO[C@@H](c2cc(C(F)(F)F)cc(C(F)(F)F)c2)[C@H]1C [Example 3A, 2″-(((4S,5R)-5-(3,5-bis(trifluoromethyl)phenyl)-4-methyl-4,5-dihydroisoxazol-3-yl)methyl)-4′-methoxy-2-methyl-4″-(trifluoromethyl)-[1,1′:3′,1″-terphenyl]-4-carboxylic acid] | > 10000
15 | COc1ccc(-c2ccc(C(=O)O)cc2C)cc1-c1ccc(C(F)(F)F)cc1CC1=NO[C@H](c2cc(C(F)(F)F)cc(C(F)(F)F)c2)[C@@H]1C [Example 3B, 2″-(((4R,5S)-5-(3,5-bis(trifluoromethyl)phenyl)-4-methyl-4,5-dihydroisoxazol-3-yl)methyl)-4′-methoxy-2-methyl-4″-(trifluoromethyl)-[1,1′:3′,1″-terphenyl]-4-carboxylic acid] | 293
